Data on one compound can be found in ChEMBL document CHEMBL4406808, “Synthesis and assessment of phenylacrylamide derivatives as potential anti-oxidant and anti-inflammatory agents” (Eur J Med Chem, 2019).

Each structure is given as a SMILES string. Calls of active or inactive are those of the source. The calls are words filed in the database; no cut-off is given here.

In one assay the test system is HBZY-1. Description: Cytoprotection activity against H2O2-induced cell death in rat HBZY-1 cells assessed as cell viability at 6 uM preincubated with compound for 2 hrs followed by H2O2 addition and measured after 24 hrs by MTT assay (reference value: 62.1%). To be noted: read-out: Activity. Type of assay: functional.
Assay [1] has as its target Kelch-like ECH-associated protein 1 (Rattus norvegicus) (UniProt P57790). The assay is described as follows: Binding affinity to Keap1 in rat HBZY-1 cells assessed as induction of Nrf2 nuclear translocation by measuring increase in ratio of nuclear to cytosolic Nrf2 level by Western blot analysis. Type of assay: cell-based.
Assay [2] has the same target. Description: Binding affinity to Keap1 in rat HBZY-1 cells assessed as induction of Keap1/Nrf2 signaling by measuring increase in NQO-1 protein expression by Western blot analysis. The assay is classed as cell-based.
Assay [3] shares this target. Description: Binding affinity to Keap1 in rat HBZY-1 cells assessed as induction of Keap1/Nrf2 signaling by measuring increase in HO-1 protein expression by Western blot analysis. The assay is classed as cell-based.
The target is the same in assay [4]. The assay is described as follows: Binding affinity to Keap1 in rat HBZY-1 cells assessed as induction of Keap1/Nrf2 signaling by measuring increase in GCLM protein expression by Western blot analysis. Type of assay: cell-based.
Assay [5] has the same target. The assay is described as follows: Binding affinity to Keap1 in rat HBZY-1 cells assessed as induction of Keap1/Nrf2 signaling by measuring increase in GCLC protein expression by Western blot analysis. Type of assay: cell-based.
The target is the same in assay [6]. The assay is described as follows: Binding affinity to Keap1 in rat HBZY-1 cells assessed as induction of Keap1/Nrf2 signaling by measuring increase in NQO-1 mRNA expression at 6 uM by RT-PCR analysis. Type of assay: cell-based.
Assay [7] shares this target. Description: Binding affinity to Keap1 in rat HBZY-1 cells assessed as induction of Keap1/Nrf2 signaling by measuring increase in HO-1 mRNA expression at 6 uM by RT-PCR analysis. Type of assay: cell-based.
Assay [8] has the same target. Description: Binding affinity to Keap1 in rat HBZY-1 cells assessed as induction of Keap1/Nrf2 signaling by measuring increase in GCLM mRNA expression at 6 uM by RT-PCR analysis. Type of assay: cell-based.
Assay [9] shares this target. Description: Binding affinity to Keap1 in rat HBZY-1 cells assessed as induction of Keap1/Nrf2 signaling by measuring increase in GCLC mRNA expression at 6 uM by RT-PCR analysis. The assay is classed as cell-based.

Sequence of Kelch-like ECH-associated protein 1 (Rattus norvegicus) (P57790 whole entry): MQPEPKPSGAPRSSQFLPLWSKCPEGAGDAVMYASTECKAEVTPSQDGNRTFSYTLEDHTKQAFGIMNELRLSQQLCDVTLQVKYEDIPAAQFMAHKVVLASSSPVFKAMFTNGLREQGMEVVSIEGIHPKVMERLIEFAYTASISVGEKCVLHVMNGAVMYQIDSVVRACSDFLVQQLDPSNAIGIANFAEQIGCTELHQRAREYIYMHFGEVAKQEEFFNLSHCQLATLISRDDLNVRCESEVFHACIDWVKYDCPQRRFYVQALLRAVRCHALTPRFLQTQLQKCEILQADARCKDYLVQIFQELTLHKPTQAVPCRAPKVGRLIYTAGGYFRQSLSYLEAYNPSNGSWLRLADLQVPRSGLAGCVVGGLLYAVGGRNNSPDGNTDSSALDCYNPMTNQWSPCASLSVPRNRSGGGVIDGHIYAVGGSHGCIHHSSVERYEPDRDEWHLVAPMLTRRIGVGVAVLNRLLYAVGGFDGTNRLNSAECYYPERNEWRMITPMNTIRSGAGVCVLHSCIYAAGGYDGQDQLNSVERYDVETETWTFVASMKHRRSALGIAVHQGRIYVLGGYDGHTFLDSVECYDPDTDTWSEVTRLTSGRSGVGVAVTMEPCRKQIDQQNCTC

For `Oc1ccc(/C=C/c2cc(O)cc(O)c2)cc1` [RESVERATROL], the viability at 6 µM in the assay with HBZY-1 was found to be 76.8%. In addition, the result in [1], in assay [2], in [3], in assay [4], in assay [5] and in [6] was Active. Besides, the result in assay [7], in assay [8] and in assay [9] was Active.
